Data: the supplement of paper PMC6045584
± gives the standard deviation of the averaged measurements.

Legend:
[1] = compound: CC(=O)O[C@H]1C(=O)[C@@]2(C)[C@H]([C@H](OC(=O)c3ccccc3)[C@]3(O)C[C@H](OC(=O)[C@H](O)[C@@H](NC(=O)c4ccccc4)c4ccccc4)C(C)=C1C3(C)C)[C@]1(OC(C)=O)CO[C@@H]1C[C@@H]2O [PACLITAXEL]; assay: surviving fraction relative to DMSO-only wells; higher = less growth inhibition; details: exposure time: 5 days
How it was run: (§1)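 In 384-well plates, 250–500 log-phase tumour cells per well were given 24 hours before five days of continuous exposure to inhibitors at 0.5, 1, 5, 10, 50, 100, 500 and 1000 nM. Surviving fraction is luminescence from CellTiter-Glo, normalised to the median of wells containing DMSO alone. Reading took place after 10 minutes at room temperature.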

[2] = compound: COCC[n+]1c2c(n(Cc3cnccn3)c1C)C(=O)c1ccccc1C2=O [YM155]; assay: as above; details: exposure time: 5 days
How it was run: as §1

Row | Test System | surviving fraction ([1]; 0.5 nM) | surviving fraction ([1]; 1 nM) | surviving fraction ([1]; 5 nM) | surviving fraction ([1]; 10 nM) | surviving fraction ([1]; 50 nM) | surviving fraction ([1]; 100 nM) | surviving fraction ([1]; 500 nM) | surviving fraction ([1]; 1000 nM) | surviving fraction ([2]; 0.5 nM) | surviving fraction ([2]; 1 nM) | surviving fraction ([2]; 5 nM) | surviving fraction ([2]; 10 nM) | surviving fraction ([2]; 50 nM) | surviving fraction ([2]; 100 nM) | surviving fraction ([2]; 500 nM) | surviving fraction ([2]; 1000 nM)
1 | HCC1954 BREAST | 0.6985 ± 0.00071 | 0.569 ± 0.0021 | 0.199 ± 0.0014 | 0.094 ± 0.0057 | 0.0897 ± 0.0025 | 0.071 ± 0.0028 | 0.0592 ± 0.012 | 0.0653 ± 0.015 | 1.08 ± 0.077 | 0.922 ± 0.12 | 0.987 ± 0.051 | 0.467 ± 0.079 | 0.0892 ± 0.02 | 0.035 ± 0.0064 | 0.0335 ± 0.00071 | 0.0333 ± 0.0053
2 | CASKI CERVIX | 0.857 ± 0.054 | 0.619 ± 0.029 | 0.0537 ± 0.011 | 0.0343 ± 0.00058 | 0.037 ± 0.005 | 0.0387 ± 0.0067 | 0.0313 ± 0.005 | 0.0303 ± 0.0045 | 0.914 ± 0.052 | 0.93 ± 0.07 | 0.796 ± 0.056 | 0.538 ± 0.046 | 0.063 ± 0.009 | 0.0337 ± 0.0011 | 0.0223 ± 0.0015 | 0.0267 ± 0.0015
3 | A549 LUNG | 0.982 ± 0.013 | 1.04 ± 0.031 | 0.369 ± 0.011 | 0.234 ± 0.0055 | 0.182 ± 0.011 | 0.186 ± 0.01 | 0.172 ± 0.0087 | 0.179 ± 0.0038 | 0.977 ± 0.029 | 1.01 ± 0.034 | 0.971 ± 0.021 | 0.98 ± 0.021 | 0.191 ± 0.005 | 0.12 ± 0.0047 | 0.024 | 0.028
4 | SG32 HEADNECK | 0.906 ± 0.26 | 0.603 ± 0.093 | 0.275 ± 0.032 | 0.259 ± 0.015 | 0.281 ± 0.062 | 0.275 ± 0.02 | 0.244 ± 0.02 | 0.218 ± 0.021 | 0.841 ± 0.053 | 0.83 ± 0.12 | 0.438 ± 0.017 | 0.238 ± 0.036 | 0.0633 ± 0.027 | 0.025 ± 0.0036 | 0.0197 ± 0.0021 | 0.0227 ± 0.0011
5 | LM7 BONE | 0.951 ± 0.061 | 0.825 ± 0.034 | 0.123 ± 0.019 | 0.092 ± 0.003 | 0.0847 ± 0.0068 | 0.075 ± 0.0044 | 0.0723 ± 0.0015 | 0.0703 ± 0.004 | 0.943 ± 0.029 | 0.889 ± 0.053 | 0.433 ± 0.018 | 0.201 ± 0.019 | 0.039 ± 0.0056 | 0.0237 ± 0.00058 | 0.0197 ± 0.00058 | 0.025 ± 0.0017
6 | NOS1 BONE | 1.08 ± 0.072 | 0.6 ± 0.053 | 0.396 ± 0.026 | 0.304 ± 0.0081 | 0.287 ± 0.024 | 0.252 ± 0.013 | 0.214 ± 0.039 | 0.21 ± 0.024 | 1.4 ± 0.44 | 1.03 ± 0.084 | 0.316 ± 0.034 | 0.17 ± 0.025 | 0.0643 ± 0.0076 | 0.048 ± 0.0062 | 0.0337 ± 0.0058 | 0.0323 ± 0.0025
7 | HMLE3 BREAST | 0.89 ± 0.065 | 0.816 ± 0.1 | 0.247 ± 0.019 | 0.0813 ± 0.0093 | 0.05 ± 0.007 | 0.0377 ± 0.0042 | 0.034 ± 0.0027 | 0.0287 ± 0.0011 | 0.974 ± 0.062 | 1.06 ± 0.15 | 0.425 ± 0.072 | 0.129 ± 0.02 | 0.0257 ± 0.00058 | 0.0227 ± 0.00058 | 0.018 ± 0.001 | 0.0213 ± 0.00058
8 | SCC36 HEADNECK | 0.966 ± 0.035 | 0.8 ± 0.0036 | 0.246 ± 0.041 | 0.154 ± 0.042 | 0.103 ± 0.007 | 0.109 ± 0.026 | 0.108 ± 0.006 | 0.114 ± 0.017 | 1.01 ± 0.035 | 1.02 ± 0.042 | 1.06 ± 0.14 | 0.817 ± 0.07 | 0.261 ± 0.056 | 0.105 ± 0.0036 | 0.04 ± 0.0056 | 0.0387 ± 0.0015
9 | 93VU HEADNECK | 0.972 ± 0.067 | 0.752 ± 0.059 | 0.326 ± 0.015 | 0.266 ± 0.014 | 0.157 ± 0.011 | 0.134 ± 0.0064 | 0.135 ± 0.018 | 0.132 ± 0.0017 | 0.961 ± 0.099 | 0.982 ± 0.081 | 1.06 ± 0.061 | 1.045 ± 0.0081 | 0.839 ± 0.034 | 0.815 ± 0.06 | 0.193 ± 0.011 | 0.123 ± 0.027
10 | SG31 HEADNECK | 0.976 ± 0.12 | 0.887 ± 0.06 | 0.455 ± 0.029 | 0.381 ± 0.036 | 0.271 ± 0.037 | 0.252 ± 0.033 | 0.267 ± 0.045 | 0.273 ± 0.028 | 1.01 ± 0.095 | 1.07 ± 0.074 | 0.883 ± 0.062 | 0.893 ± 0.11 | 0.391 ± 0.13 | 0.291 ± 0.15 | 0.0993 ± 0.037 | 0.104 ± 0.064
11 | T47D BREAST | 0.718 ± 0.018 | 0.579 ± 0.01 | 0.307 ± 0.0054 | 0.265 ± 0.027 | 0.226 ± 0.011 | 0.222 ± 0.022 | 0.214 ± 0.0067 | 0.226 ± 0.023 | 0.959 ± 0.013 | 0.983 ± 0.027 | 0.917 ± 0.035 | 0.763 ± 0.0085 | 0.212 ± 0.01 | 0.131 ± 0.01 | 0.0481 ± 0.0042 | 0.0483 ± 0.0017
12 | G292 BONE | 0.727 ± 0.028 | 0.472 ± 0.021 | 0.196 ± 0.0038 | 0.161 ± 0.0064 | 0.148 ± 0.0067 | 0.147 ± 0.0013 | 0.1228 ± 0.00076 | 0.128 ± 0.0067 | 0.967 ± 0.04 | 1 ± 0.047 | 0.654 ± 0.024 | 0.528 ± 0.037 | 0.251 ± 0.0065 | 0.194 ± 0.007 | 0.0688 ± 0.0042 | 0.0473 ± 0.0024
13 | JURKAT HAEMATOPOIETIC AND LYMPHOID TISSUE | 1.01 ± 0.024 | 0.675 ± 0.042 | 0.0347 ± 0.0021 | 0.03 ± 0.001 | 0.0297 ± 0.0011 | 0.0237 ± 0.00058 | 0.02 ± 0.001 | 0.0213 ± 0.00058 | 1.02 ± 0.062 | 1.033 ± 0.0072 | 0.782 ± 0.015 | 0.445 ± 0.014 | 0.0363 ± 0.00058 | 0.029 | 0.027 | 0.0317 ± 0.00058
14 | SUM44 BREAST | 0.927 ± 0.021 | 0.515 ± 0.041 | 0.403 ± 0.0066 | 0.278 ± 0.0095 | 0.241 ± 0.019 | 0.213 ± 0.0074 | 0.218 ± 0.0062 | 0.202 ± 0.011 | 1.05 ± 0.16 | 1.15 ± 0.24 | 1.1 ± 0.2 | 1 ± 0.27 | 0.358 ± 0.12 | 0.225 ± 0.055 | 0.121 ± 0.049 | 0.125 ± 0.064
15 | PCI30 HEADNECK | 0.721 ± 0.06 | 0.355 ± 0.044 | 0.199 ± 0.022 | 0.114 ± 0.03 | 0.0853 ± 0.011 | 0.0737 ± 0.016 | 0.0753 ± 0.016 | 0.071 ± 0.0061 | 0.933 ± 0.064 | 0.84 ± 0.075 | 0.793 ± 0.021 | 0.491 ± 0.017 | 0.04 ± 0.0027 | 0.024 ± 0.0017 | 0.021 ± 0.0017 | 0.0233 ± 0.00058
16 | CME SYNOVIAL | 1.07 ± 0.11 | 0.933 ± 0.11 | 0.524 ± 0.12 | 0.279 ± 0.073 | 0.258 ± 0.02 | 0.219 ± 0.028 | 0.2 ± 0.041 | 0.262 ± 0.02 | 0.752 ± 0.12 | 0.95 ± 0.22 | 0.468 ± 0.037 | 0.254 ± 0.049 | 0.232 ± 0.023 | 0.206 ± 0.0035 | 0.189 ± 0.0055 | 0.27 ± 0.029
17 | VP229 BREAST | 1.05 ± 0.091 | 0.93 ± 0.067 | 0.516 ± 0.064 | 0.364 ± 0.041 | 0.338 ± 0.013 | 0.27 ± 0.019 | 0.279 ± 0.052 | 0.293 ± 0.024 | 1.04 ± 0.023 | 1.03 ± 0.18 | 0.903 ± 0.17 | 0.874 ± 0.081 | 0.265 ± 0.085 | 0.137 ± 0.0015 | 0.046 ± 0.01 | 0.042 ± 0.007
18 | HMT3552 BREAST | 0.568 | 0.133 | 0.09 | 0.091 | 0.106 | 0.099 | 0.1 | 0.094 | 0.983 ± 0.045 | 1.015 ± 0.009 | 1.06 ± 0.015 | 1.05 ± 0.056 | 0.17 ± 0.027 | 0.0797 ± 0.0055 | 0.0473 ± 0.0035 | 0.0537 ± 0.00058
19 | CAL51 BREAST | 0.824 ± 0.04 | 0.642 ± 0.076 | 0.0935 ± 0.013 | 0.0585 ± 0.0033 | 0.0427 ± 0.0018 | 0.0332 ± 0.0037 | 0.0295 ± 0.0005 | 0.0332 ± 0.0027 | 0.905 ± 0.039 | 0.873 ± 0.042 | 0.231 ± 0.029 | 0.105 ± 0.015 | 0.0278 ± 0.001 | 0.0232 ± 0.00058 | 0.019 ± 0.00087 | 0.024 ± 0.0005
20 | MDAMB361 BREAST | 0.974 ± 0.073 | 0.952 ± 0.028 | 0.887 ± 0.04 | 0.707 ± 0.021 | 0.585 ± 0.041 | 0.593 ± 0.056 | 0.516 ± 0.046 | 0.546 ± 0.027 | 0.869 ± 0.069 | 0.826 ± 0.073 | 0.919 ± 0.23 | 0.549 ± 0.041 | 0.224 ± 0.0076 | 0.191 ± 0.022 | 0.103 ± 0.0066 | 0.0887 ± 0.0074
21 | 22RV1 PROSTATE | 1.02 ± 0.057 | 1.04 ± 0.066 | 0.121 ± 0.018 | 0.0847 ± 0.0021 | 0.0603 ± 0.0061 | 0.053 ± 0.0036 | 0.0467 ± 0.0057 | 0.0553 ± 0.0046 | 1.12 ± 0.21 | 1.05 ± 0.097 | 0.703 ± 0.16 | 0.679 ± 0.13 | 0.151 ± 0.16 | 0.165 ± 0.23 | 0.101 ± 0.14 | 0.121 ± 0.16
